According to patent US12247019B2 (Centaurus Therapeutics, priority 2018, dated 2025):
Where two headings read alike, the source gives them in different places.

What was measured:
[1] = target: T1, Des1 (Homo sapiens, UniProt O15121); test: Jurkat T cell measurement of conversion of dihydroceramide to ceramide (Des1 activity, LC-MS/MS of NBD-C6-ceramide); type: cell-based; set-up: Jurkat clone E6-1 cells were grown and then seeded at 10^6 cells/mL in a 96-well plate; endogenous in cells; host or cells: Jurkat clone E6-1; settings: 0.5 uM compound; Jurkat clone E6-1 cells, 10 μM NBD-C6-dihydroceramide, 3 hours at 37° C.; read-out: Des1 % Inhib (0.5 uM)
T1 sequence (O15121 1-323): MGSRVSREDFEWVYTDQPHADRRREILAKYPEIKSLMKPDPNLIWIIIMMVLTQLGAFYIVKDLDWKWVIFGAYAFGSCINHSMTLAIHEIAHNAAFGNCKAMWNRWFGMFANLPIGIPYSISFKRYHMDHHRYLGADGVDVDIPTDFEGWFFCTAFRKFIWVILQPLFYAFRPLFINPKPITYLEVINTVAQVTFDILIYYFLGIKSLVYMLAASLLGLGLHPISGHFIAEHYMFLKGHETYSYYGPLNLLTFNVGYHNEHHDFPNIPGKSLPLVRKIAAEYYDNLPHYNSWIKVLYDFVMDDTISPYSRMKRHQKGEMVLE
Protocol: (§1) Jurkat T Cell Measurement of Conversion of Dihydroceramide to Ceramide
Jurkat clone E6-1 cells were grown and then seeded at 10^6 cells/mL in a 96-well plate (400 μL in each well. The cells were administered 100 μL of cell culture media containing 50-μM NBD-C6-dihydroceramide (Des1 substrate), affording a final concentration of substrate of 10 μM. The cells were incubated with substrate at 4° C. for 30 minutes. Following the incubation at 4° C., the cell suspension was centrifuged at 1200 rpm for 3 minutes, and the cell pellet is resuspended in 400 μL of fresh media containing various concentrations of either fenretinide (known Des1 inhibitor control compound) or test article. The final concentrations of control compound and test compounds were tested in a range from 0-10 μM. The cells and compounds were incubated at 37° C. for 3 hours. Following the 3-hour incubation, the plate was centrifuged at 2500 g for 3 minutes at 4° C., followed by collection and transfer of 200 μL of the supernatant to a new 96-well plate with 300 μL of methanol an containing appropriate internal standards for liquid chromatography/tandem mass spectroscopy (LC/MS/MS) analysis (internal standard: 500 nM labetalol and 100 nM alprazolam). The samples were vortexed for 2 minutes followed by centrifugation at 3,220 g for 20 minutes. […]

[2] = target: T1, Des1; test: as above; type: cell-based; set-up: endogenous in cells; host or cells: Jurkat clone E6-1; settings: Jurkat clone E6-1 cells; for inhibition at 0.5 µM: 0.5 uM compound, read-out: Des1 % Inhib (0.5 uM)
Protocol: as §1
Jurkat clone E6-1 cells were grown and then seeded at 10^6 cells/mL in a 96-well plate (400 μL in each well. The cells were administered 100 μL of cell culture media containing 50-μM NBD-C6-dihydroceramide (Des1 substrate), affording a final concentration of substrate of 10 μM. The cells were incubated with substrate at 4° C. for 30 minutes. Following the incubation at 4° C., the cell suspension was centrifuged at 1200 rpm for 3 minutes, and the cell pellet is resuspended in 400 μL of fresh media containing various concentrations of either fenretinide (known Des1 inhibitor control compound) or test article. The final concentrations of control compound and test compounds were tested in a range from 0-10 μM. The cells and compounds were incubated at 37° C. for 3 hours. Following the 3-hour incubation, the plate was centrifuged at 2500 g for 3 minutes at 4° C., followed by collection and transfer of 200 μL of the supernatant to a new 96-well plate with 300 μL of methanol an containing appropriate internal standards for liquid chromatography/tandem mass spectroscopy (LC/MS/MS) analysis (internal standard: 500 nM labetalol and 100 nM alprazolam). The samples were vortexed for 2 minutes followed by centrifugation at 3,220 g for 20 minutes. Following centrifugation, 200 μL of the supernatant was transferred to a new 96-well plate for LC-MS/MS analysis to determine the amount of NBD-C6-ceramide (Des1 product) produced. The assay was typically performed in duplicate. A reduction of at least 30% compared to vehicle control (0 μM test article) is indicative of an active compound, and a reduction of 75% compared to vehicle control is preferred.

[3] = system: insulin-stimulated Akt phosphorylation in C2C12 myotubes; test: C2C12 myotube assay of insulin-stimulated phosphorylation of Akt; type: cell-based; settings: 0.75 mM BSA-conjugated palmitate 16 hours, insulin 100 nM 10 minutes; read-out: half-maximal effective concentration (EC50) for increasing insulin-stimulated Akt phosphorylation in the presence of palmitate
Protocol: C2C12 Myotube Assay of Insulin-Stimulated Phosphorylation of Akt:
C2C12 myotubes are treated with 0.75 mM BSA-conjugated palmitate for 16 hours in the presence or absence of 7 non-zero concentrations of fenretinide (Des1 inhibitor control compound) or various test articles, followed by a 10-minute stimulation with insulin (100 nM). Cells are subsequently harvested and boiled in reducing SDS sample buffer and subjected to SDS-PAGE followed by detection of phosphorylated Akt, total Akt, and a suitable loading control (e.g. actin or GAPDH) by western blot using fluorescently-conjugated secondary antibodies. Band intensities are quantitated by an Odyssey imaging system (Li—COR), but could also be performed using HRP-conjugated secondary antibodies/enhanced chemiluminescence or by colorimetric readout.
Moreover, while currently contemplated for SDS-PAGE/immunoblot format, this assay could be adapted to ELISA or in-cell western (immunocytochemistry) formats for higher throughput testing of compounds. An increase of 30% compared to vehicle control (0 μM test article) is indicative of an active compound, and an increase of 50% compared to control is preferred. […] Des1 inhibitors disclosed herein are expected to be effective in this assay.

[4] = system: CFTR-KO mice; settings: Guilbault et al. 2008, 2009, cited from earlier work
[5] = 10 μM NBD-C6-dihydroceramide, 3 hours at 37° C.
[6] = 10 μM NBD-C6-dihydroceramide, 3 hours at 37° C., read-out: Des1 IC50

Compound	inhibition at 0.5 µM [2, 5] [%]	IC50 [2, 6] [nM]	further results
O=S(=O)(Nc1ccc(O)cn1)N1CCN(c2ccc(F)cc2)CC1 [Example 72]			inhibition at 0.5 µM [1]: 50.2%
O=S(=O)(Nc1ccc(O)cn1)N1CCN(c2ccc(Cl)cn2)CC1 [Example 73, 4-(5-Chloropyridin-2-yl)-N-(5-hydroxypyridin-2-yl)piperazine-1-sulfonamide]	41.9		
O=S(=O)(Nc1ccc(O)cn1)N1CCN(c2ccc(Cl)cc2)CC1 [Example 74, 4-(4-chlorophenyl)-N-(5-hydroxypyridin-2-yl)piperazine-1-sulfonamide]	72.8		
O=S(=O)(Nc1ccc(O)cn1)N1CCN(c2ccc(C(F)(F)F)cc2)CC1 [Example 75, N-(5-hydroxypyridin-2-yl)-4-(4-(trifluoromethyl)phenyl)-piperazine-1-sulfonamide]	91.2	62 to 86	
O=C(NCc1ccc(Cl)cc1)Nc1ccc(O)cn1 [Example 76, 1-[(4-chlorophenyl)methyl]-3-(5-hydroxypyridin-2-yl)urea]	75.1		
O=C(Nc1ccc(O)cn1)N1CCN(Cc2ccc(F)c(F)c2)CC1 [Example 77, 4-[(3,4-difluorophenyl)methyl]-N-(5-hydroxypyridin-2-yl)piperazine-1-carboxamide]	91.9	35	
O=C(Nc1ccc(O)cn1)N1CCN(c2cc(F)ccn2)CC1 [Example 78, 4-(4-fluoropyridin-2-yl)-N-(5-hydroxypyridin-2-yl)piperazine-1-carboxamide]	93.4	19 to 64	
O=C(Nc1ccc(O)cn1)N1CCN(c2ncc(F)cc2F)CC1 [Example 79, 4-(3,5-difluoropyridin-2-yl)-N-(5-hydroxypyridin-2-yl) piperazine-1-carboxamide]	93.8	7.6 to 70	
O=C(Nc1ccc(O)cn1)N1CCN(c2cnn(-c3ccccc3)c2)CC1 [Example 80, N-(5-hydroxypyridin-2-yl)-4-(1-phenyl-1H-pyrazol-4-yl)piperazine-1-carboxamide]	56.9		
Cn1ncc2c(N3CCN(C(=O)Nc4ccc(O)cn4)CC3)cccc21 [Example 81, N-(5-hydroxypyridin-2-yl)-4-(1-methyl-1H-indazol-4-yl)piperazine-1-carboxamide]	77.9		
Cn1ncc2ccc(N3CCN(C(=O)Nc4ccc(O)cn4)CC3)cc21 [Example 82, N-(5-hydroxypyridin-2-yl)-4-(1-methyl-1H-indazol-6-yl)piperazine-1-carboxamide]	78.4		
O=C(Nc1ccc(O)cn1)N1CCN(c2nc(F)c(F)cc2F)CC1 [Example 83, N-(5-hydroxypyridin-2-yl)-4-(3,5,6-trifluoropyridin-2-yl) piperazine-1-carboxamide]	94.9	65	
O=C(Nc1ccc(O)cn1)N1CCCN(c2ccc(F)cn2)CC1 [Example 84, 4-(5-fluoropyridin-2-yl)-N-(5-hydroxypyridin-2-yl)-1,4-diazepane-1-carboxamide]		100	
O=C(Nc1ccc(O)cn1)N1CCCN(c2ccc(Cl)cn2)CC1 [Example 85, 4-(5-chloropyridin-2-yl)-N-(5-hydroxypyridin-2-yl)-1,4-diazepane-1-carboxamide]		55	
O=C(Nc1ccc(O)cn1)N1CCCN(c2ccc(C(F)(F)F)cn2)CC1 [Example 86, N-(5-hydroxypyridin-2-yl)-4-[5-(trifluoromethyl)pyridin-2-yl]-1,4-diazepane-1-carboxamide]	84.6	78	
O=C(Nc1ccc(O)cn1)N1CCCN(c2ccc(F)c(F)c2)CC1 [Example 87, 4-(3,4-difluorophenyl)-N-(5-hydroxypyridin-2-yl)-1,4-diazepane-1-carboxamide]	92.7	21	
O=C(Oc1ccc(O)cn1)N1CCN(c2ccc(C(F)(F)F)cn2)CC1 [Example 88, 5-hydroxypyridin-2-yl 4-[5-(trifluoromethyl)pyridin-2-yl]piperazine-1-carboxylate]	92.7	25	
O=C(Nc1ccc(O)cn1)c1cccc(-c2ccccc2)c1 [Example 89, N-(5-hydroxypyridin-2-yl)-[1,1-biphenyl]-3-carboxamide]	93	2.9	
Cn1cc(C2CCC(C(=O)Nc3ccc(O)cn3)CC2)cn1 (centres unmarked) [Example 90, N-(5-hydroxypyridin-2-yl)-4-(1-methyl-1H-pyrazol-4-yl)cyclohexane-1-carboxamide]	39.2		
CC1=C(/C=C/C(C)=C/C=C/C(C)=C/C(=O)Nc2ccc(O)cc2)C(C)(C)CCC1 [fenretinide]			EC50 [3]: 600 nM; IC50 ([2]; read-out: half-maximal inhibitory concentration (IC50)): 100 to 250 nM; susceptibility to infection with Pseudomonas aeruginosa ([4]; CFTR-KO mice): reduce susceptibility to infection; ratio of lung arachidonic acid (AA) to docosahexaenoic acid (DHA) ([4]; lungs of CFTR-KO mice): normalize this ratio
